Reference: US20100160454A1, “ANTIMICROBIAL AGENTS, COMPOSITIONS AND PRODUCTS CONTAINING THE SAME, AND METHODS OF USING THE COMPOSITIONS AND PRODUCTS” (Eastman Chemical Company, priority 2008, published 2010)

Legend:
Test in all cases: Microbiological challenge testing in BPW broth, graded subculture counts
Assay type in all cases: cell-based
Aeromonas sp. Wild type = system: Aeromonas sp. Wild type
How it was run: (§1)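 Serial 1:10 dilutions were made in pH 7.2 phosphate buffer and spread-plated onto PCA, and colonies were counted after 48 h or more at 35 °C. In the challenge, BPW–dextrose tubes containing the test material received inoculum at 10^5–10^6 CFU/mL at time zero. Controls without test material served as reference.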

[1] = system: Streptococcus mutans ATCC 35668
How it was run: as §1

[2] = system: Staphylococcus epidermidis ATCC 12228
How it was run: as §1

[3] = system: Escherichia coli ATCC 25922; conditions: E. Coli
How it was run: as §1

[4] = system: Pseudomonas aeruginosa Wild type; conditions: P. aeruginosa
How it was run: as §1

[5] = system: Bacillus subtilis Wild type
How it was run: as §1

OCC1CCCC(CO)C1 (stereo not drawn) [1,3-CHDM, 1,3-cyclohexanedimethanol]
Aeromonas sp growth grade, 3 day (Aeromonas sp. Wild type; 0.5% weight/volume): 5 (More than 10,000 colonies estimated (thus more than 100,000 CFU/mL)) | Aeromonas sp growth grade, 14 day (Aeromonas sp. Wild type; 0.5% weight/volume): 4 (1000 to 10,000 colonies countable (thus 10,000 CFU/mL to 100,000 CFU/mL)) | Aeromonas sp growth grade, 30 day (Aeromonas sp. Wild type; 0.5% weight/volume): 4 (1000 to 10,000 colonies countable (thus 10,000 CFU/mL to 100,000 CFU/mL)) | Aeromonas sp growth grade, 3 day (Aeromonas sp. Wild type; 1.25% weight/volume): 4 (1000 to 10,000 colonies countable (thus 10,000 CFU/mL to 100,000 CFU/mL)) | Aeromonas sp growth grade, 14 day (Aeromonas sp. Wild type; 1.25% weight/volume): 4 (1000 to 10,000 colonies countable (thus 10,000 CFU/mL to 100,000 CFU/mL)) | Aeromonas sp growth grade, 30 day (Aeromonas sp. Wild type; 1.25% weight/volume): 4 (1000 to 10,000 colonies countable (thus 10,000 CFU/mL to 100,000 CFU/mL)) | Aeromonas sp growth grade, 3 day (Aeromonas sp. Wild type; 2.5% weight/volume): 4 (1000 to 10,000 colonies countable (thus 10,000 CFU/mL to 100,000 CFU/mL)) | Aeromonas sp growth grade, 14 day (Aeromonas sp. Wild type; 2.5% weight/volume): 4 (1000 to 10,000 colonies countable (thus 10,000 CFU/mL to 100,000 CFU/mL)) | Aeromonas sp growth grade, 30 day (Aeromonas sp. Wild type; 2.5% weight/volume): 4 (1000 to 10,000 colonies countable (thus 10,000 CFU/mL to 100,000 CFU/mL)) | Aeromonas sp growth grade, 3 day (Aeromonas sp. Wild type; 5.0% weight/volume): 4 (1000 to 10,000 colonies countable (thus 10,000 CFU/mL to 100,000 CFU/mL)) | Aeromonas sp growth grade, 14 day (Aeromonas sp. Wild type; 5.0% weight/volume): 4 (1000 to 10,000 colonies countable (thus 10,000 CFU/mL to 100,000 CFU/mL)) | Aeromonas sp growth grade, 30 day (Aeromonas sp. Wild type; 5.0% weight/volume): 4 (1000 to 10,000 colonies countable (thus 10,000 CFU/mL to 100,000 CFU/mL)) | S. mutans growth grade, 3 day ([1]; 0.5% weight/volume): 5 (More than 10,000 colonies estimated (thus more than 100,000 CFU/mL)) | S. mutans growth grade, 13 day ([1]; 0.5% weight/volume): 4 (1000 to 10,000 colonies countable (thus 10,000 CFU/mL to 100,000 CFU/mL)) | S. mutans growth grade, 30 day ([1]; 0.5% weight/volume): 4 (1000 to 10,000 colonies countable (thus 10,000 CFU/mL to 100,000 CFU/mL)) | S. mutans growth grade, 3 day ([1]; 1.25% weight/volume): 4 (1000 to 10,000 colonies countable (thus 10,000 CFU/mL to 100,000 CFU/mL)) | S. mutans growth grade, 13 day ([1]; 1.25% weight/volume): 4 (1000 to 10,000 colonies countable (thus 10,000 CFU/mL to 100,000 CFU/mL)) | S. mutans growth grade, 30 day ([1]; 1.25% weight/volume): 4 (1000 to 10,000 colonies countable (thus 10,000 CFU/mL to 100,000 CFU/mL)) | S. mutans growth grade, 3 day ([1]; 2.5% weight/volume): 4 (1000 to 10,000 colonies countable (thus 10,000 CFU/mL to 100,000 CFU/mL)) | S. mutans growth grade, 13 day ([1]; 2.5% weight/volume): 4 (1000 to 10,000 colonies countable (thus 10,000 CFU/mL to 100,000 CFU/mL)) | S. mutans growth grade, 30 day ([1]; 2.5% weight/volume): 4 (1000 to 10,000 colonies countable (thus 10,000 CFU/mL to 100,000 CFU/mL)) | S. mutans growth grade, 3 day ([1]; 5.0% weight/volume): 2 (52 to 100 colonies counted (thus 520 to 1000 CFU/mL)) | S. mutans growth grade, 13 day ([1]; 5.0% weight/volume): 0 | S. mutans growth grade, 30 day ([1]; 5.0% weight/volume): 0 | S. epidermidis growth grade, 3 day ([2]; 0.5% weight/volume): 4 (1000 to 10,000 colonies countable (thus 10,000 CFU/mL to 100,000 CFU/mL)) | S. epidermidis growth grade, 13 day ([2]; 0.5% weight/volume): 4 (1000 to 10,000 colonies countable (thus 10,000 CFU/mL to 100,000 CFU/mL)) | S. epidermidis growth grade, 30 day ([2]; 0.5% weight/volume): 4 (1000 to 10,000 colonies countable (thus 10,000 CFU/mL to 100,000 CFU/mL)) | S. epidermidis growth grade, 3 day ([2]; 1.25% weight/volume): 4 (1000 to 10,000 colonies countable (thus 10,000 CFU/mL to 100,000 CFU/mL)) | S. epidermidis growth grade, 13 day ([2]; 1.25% weight/volume): 3.7 | S. epidermidis growth grade, 30 day ([2]; 1.25% weight/volume): 4 (1000 to 10,000 colonies countable (thus 10,000 CFU/mL to 100,000 CFU/mL)) | S. epidermidis growth grade, 3 day ([2]; 2.5% weight/volume): 4 (1000 to 10,000 colonies countable (thus 10,000 CFU/mL to 100,000 CFU/mL)) | S. epidermidis growth grade, 13 day ([2]; 2.5% weight/volume): 3 (100 to 1000 colonies (thus 1000 to 10,000 CFU/mL)) | S. epidermidis growth grade, 30 day ([2]; 2.5% weight/volume): 4 (1000 to 10,000 colonies countable (thus 10,000 CFU/mL to 100,000 CFU/mL)) | S. epidermidis growth grade, 3 day ([2]; 5.0% weight/volume): 2 (52 to 100 colonies counted (thus 520 to 1000 CFU/mL)) | S. epidermidis growth grade, 13 day ([2]; 5.0% weight/volume): 1 (0 to 51 colonies counted (thus 10 to 510 CFU/mL based on 0.1-mL sample)) | S. epidermidis growth grade, 30 day ([2]; 5.0% weight/volume): 3 (100 to 1000 colonies (thus 1000 to 10,000 CFU/mL)) | Grade ([3]; 0.5% (wt/vol), 3 day): 5 (More than 10,000 colonies estimated (thus more than 100,000 CFU/mL)) | Grade ([3]; 0.5% (wt/vol), 14 day): 5 (More than 10,000 colonies estimated (thus more than 100,000 CFU/mL)) | Grade ([3]; 0.5% (wt/vol), 30 day): 5 (More than 10,000 colonies estimated (thus more than 100,000 CFU/mL)) | Grade ([3]; 1.25% (wt/vol), 3 day): 5 (More than 10,000 colonies estimated (thus more than 100,000 CFU/mL)) | Grade ([3]; 1.25% (wt/vol), 14 day): 4 (1000 to 10,000 colonies countable (thus 10,000 CFU/mL to 100,000 CFU/mL)) | Grade ([3]; 1.25% (wt/vol), 30 day): 4 (1000 to 10,000 colonies countable (thus 10,000 CFU/mL to 100,000 CFU/mL)) | Grade ([3]; 2.5% (wt/vol), 3 day): 5 (More than 10,000 colonies estimated (thus more than 100,000 CFU/mL)) | Grade ([3]; 2.5% (wt/vol), 14 day): 4 (1000 to 10,000 colonies countable (thus 10,000 CFU/mL to 100,000 CFU/mL)) | Grade ([3]; 2.5% (wt/vol), 30 day): 4 (1000 to 10,000 colonies countable (thus 10,000 CFU/mL to 100,000 CFU/mL)) | Grade ([3]; 5.0% (wt/vol), 3 day): 4 (1000 to 10,000 colonies countable (thus 10,000 CFU/mL to 100,000 CFU/mL)) | Grade ([3]; 5.0% (wt/vol), 14 day): 3 (100 to 1000 colonies (thus 1000 to 10,000 CFU/mL)) | Grade ([3]; 5.0% (wt/vol), 30 day): 4 (1000 to 10,000 colonies countable (thus 10,000 CFU/mL to 100,000 CFU/mL)) | Grade ([4]; 0.5% (wt/vol), 3 day): 5 (More than 10,000 colonies estimated (thus more than 100,000 CFU/mL)) | Grade ([4]; 0.5% (wt/vol), 13 day): 5 (More than 10,000 colonies estimated (thus more than 100,000 CFU/mL)) | Grade ([4]; 0.5% (wt/vol), 30 day): 5 (More than 10,000 colonies estimated (thus more than 100,000 CFU/mL)) | Grade ([4]; 1.25% (wt/vol), 3 day): 4 (1000 to 10,000 colonies countable (thus 10,000 CFU/mL to 100,000 CFU/mL)) | Grade ([4]; 1.25% (wt/vol), 13 day): 4 (1000 to 10,000 colonies countable (thus 10,000 CFU/mL to 100,000 CFU/mL)) | Grade ([4]; 1.25% (wt/vol), 30 day): 4 (1000 to 10,000 colonies countable (thus 10,000 CFU/mL to 100,000 CFU/mL)) | Grade ([4]; 2.5% (wt/vol), 3 day): 4 (1000 to 10,000 colonies countable (thus 10,000 CFU/mL to 100,000 CFU/mL)) | Grade ([4]; 2.5% (wt/vol), 13 day): 4 (1000 to 10,000 colonies countable (thus 10,000 CFU/mL to 100,000 CFU/mL)) | Grade ([4]; 2.5% (wt/vol), 30 day): 4 (1000 to 10,000 colonies countable (thus 10,000 CFU/mL to 100,000 CFU/mL)) | Grade ([4]; 5.0% (wt/vol), 3 day): 4 (1000 to 10,000 colonies countable (thus 10,000 CFU/mL to 100,000 CFU/mL)) | Grade ([4]; 5.0% (wt/vol), 13 day): 4 (1000 to 10,000 colonies countable (thus 10,000 CFU/mL to 100,000 CFU/mL)) | Grade ([4]; 5.0% (wt/vol), 30 day): 4 (1000 to 10,000 colonies countable (thus 10,000 CFU/mL to 100,000 CFU/mL)) | B. subtillis growth grade, 3 day ([5]; 0.5% weight/volume): 4 (1000 to 10,000 colonies countable (thus 10,000 CFU/mL to 100,000 CFU/mL)) | B. subtillis growth grade, 14 day ([5]; 0.5% weight/volume): 4 (1000 to 10,000 colonies countable (thus 10,000 CFU/mL to 100,000 CFU/mL)) | B. subtillis growth grade, 30 day ([5]; 0.5% weight/volume): 4 (1000 to 10,000 colonies countable (thus 10,000 CFU/mL to 100,000 CFU/mL)) | B. subtillis growth grade, 3 day ([5]; 1.25% weight/volume): 4 (1000 to 10,000 colonies countable (thus 10,000 CFU/mL to 100,000 CFU/mL)) | B. subtillis growth grade, 14 day ([5]; 1.25% weight/volume): 4 (1000 to 10,000 colonies countable (thus 10,000 CFU/mL to 100,000 CFU/mL)) | B. subtillis growth grade, 30 day ([5]; 1.25% weight/volume): 4 (1000 to 10,000 colonies countable (thus 10,000 CFU/mL to 100,000 CFU/mL)) | B. subtillis growth grade, 3 day ([5]; 2.5% weight/volume): 4 (1000 to 10,000 colonies countable (thus 10,000 CFU/mL to 100,000 CFU/mL)) | B. subtillis growth grade, 14 day ([5]; 2.5% weight/volume): 4 (1000 to 10,000 colonies countable (thus 10,000 CFU/mL to 100,000 CFU/mL)) | B. subtillis growth grade, 30 day ([5]; 2.5% weight/volume): 4 (1000 to 10,000 colonies countable (thus 10,000 CFU/mL to 100,000 CFU/mL)) | B. subtillis growth grade, 3 day ([5]; 5.0% weight/volume): 4 (1000 to 10,000 colonies countable (thus 10,000 CFU/mL to 100,000 CFU/mL)) | B. subtillis growth grade, 14 day ([5]; 5.0% weight/volume): 4 (1000 to 10,000 colonies countable (thus 10,000 CFU/mL to 100,000 CFU/mL)) | B. subtillis growth grade, 30 day ([5]; 5.0% weight/volume): 4 (1000 to 10,000 colonies countable (thus 10,000 CFU/mL to 100,000 CFU/mL))
